# In paper PMC11352409, “Subtype-Specific Ligand Binding and Activation Gating in Homomeric and Heteromeric P2X Receptors” (Biomolecules, 2024):
# Biological target: T1, human P2X2/3 receptors (Homo sapiens, UniProt P56373+Q9UBL9)
# T1 construct: expressed in transfected cells
# T1 sequence (Q9UBL9 1-404 isoform Q9UBL9-2): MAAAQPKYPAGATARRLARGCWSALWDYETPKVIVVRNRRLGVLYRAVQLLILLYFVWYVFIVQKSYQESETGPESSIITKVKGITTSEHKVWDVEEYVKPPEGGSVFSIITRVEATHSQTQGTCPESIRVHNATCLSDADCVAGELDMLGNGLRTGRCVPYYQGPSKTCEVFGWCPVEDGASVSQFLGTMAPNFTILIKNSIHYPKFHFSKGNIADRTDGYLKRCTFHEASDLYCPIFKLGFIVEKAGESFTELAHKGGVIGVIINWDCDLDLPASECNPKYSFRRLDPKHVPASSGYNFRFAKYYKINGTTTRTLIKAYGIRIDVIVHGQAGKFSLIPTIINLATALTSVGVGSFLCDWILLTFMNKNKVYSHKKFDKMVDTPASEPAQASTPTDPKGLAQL
# T1 sequence (P56373 1-397): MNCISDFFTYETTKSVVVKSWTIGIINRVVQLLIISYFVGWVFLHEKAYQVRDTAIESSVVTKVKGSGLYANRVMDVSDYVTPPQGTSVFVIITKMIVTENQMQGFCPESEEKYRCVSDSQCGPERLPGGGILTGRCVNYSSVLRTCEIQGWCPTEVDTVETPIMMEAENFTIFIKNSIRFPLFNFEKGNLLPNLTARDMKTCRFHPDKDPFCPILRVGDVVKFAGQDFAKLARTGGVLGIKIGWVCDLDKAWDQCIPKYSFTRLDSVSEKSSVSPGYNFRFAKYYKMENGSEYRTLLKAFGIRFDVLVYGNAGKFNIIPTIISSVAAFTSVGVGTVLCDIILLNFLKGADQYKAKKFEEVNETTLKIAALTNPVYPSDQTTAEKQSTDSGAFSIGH
# Assay: Confocal binding versus activation of fATP at hP2X2/3 in HEK293 cells
# Details: hP2X2/3, activation rescaled to value at maximal concentration
# Experimental: For the detection of ligand binding, the cells were incubated with the fluorescent ATP derivatives in chambered coverslips or 96-well plates with cover-slip bottoms. The surface was coated with 0.1 mg/mL of poly-L-lysine for 12 h and washed twice with PBS before seeding the cells at […] density. The cells were suspended 24 h after induction and allowed to settle for two hours before being utilised for the measurements. The solutions were freshly prepared before each experiment. The bulk solution was counter-stained with the red fluorescence dye Dy647. Each confocal voxel covering the cell membrane contained both the signal from the bound ligand and the signal from ligands in the bulk solution. This additional signal, e.g., the fraction of the bulk solution inside a voxel, varied from pixel to pixel and can hardly be described theoretically.
# Because the difference in image noise contributed within both the bulk solution and the cells, the cell–bulk interfaces were selected using a Sobel operator [31] and appropriate filters/thresholds on the reference fluorophore signal. Note that only cell–bulk boundaries and not cell–cell boundaries were included in this approach. The method was described in detail previously.
# The concentration–binding relationships were normalised to their maximum relative fluorescence intensities at a saturating fATP or α,βMe-fATP concentration. […]
compound,measurement,value
"COCC[N+]1=C(C=CC=C2N(CCCCCC(=O)NCCCCCCSc3nc(N)c4ncn(C5OC(COP(=O)(O)OP(=O)(O)OP(=O)(O)O)C(O)C5O)c4n3)c3ccc(S(=O)(=O)O)cc3C2(C)C)C(C)(C)c2cc(S(=O)(=O)[O-])ccc21 (stereo not shown) [fATP, 2-[DY-547P1]-AHT-ATP]",Concentration at which normalised concentration-activation and concentration-binding curves intersect,approximately 0.5 µM
